# According to US20230124492A1, “COMPOSITIONS AND METHODS FOR SUBSTITUTED 7-(PIPERAZIN-1-YL)PYRAZOLO[1,5-A]PYRIMIDINE ANALOGS AS INHIBITORS OF KRAS” (The Board of Regents of the University of Texas System, priority 2019, published 2023):
# “Also recorded” adds a separate entry of the source.
# Key:
# [1] = tested on: KRAS-mediated MAPK signaling; experiment: KRAS-mediated MAPK signaling; format: cell-based
# [2] = biological target: GTP-KRAS (Homo sapiens, UniProt P01116); experiment: Binding of lead compound to GTP-KRAS; settings: active GTP-bound KRAS
# Sequence of GTP-KRAS (P01116 1-188 isoform P01116-2): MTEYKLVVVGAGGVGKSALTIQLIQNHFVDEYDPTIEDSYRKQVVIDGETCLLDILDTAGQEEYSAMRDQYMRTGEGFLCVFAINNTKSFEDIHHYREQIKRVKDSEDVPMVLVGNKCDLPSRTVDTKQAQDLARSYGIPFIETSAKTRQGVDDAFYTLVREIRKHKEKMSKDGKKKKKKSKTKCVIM
# [3] = tested on: cancer cells; experiment: Proliferation of cancer cells; format: cell-based
# [4] = biological target: GTP-/GDP-bound HRAS (Homo sapiens, UniProt P01112); experiment: Binding of lead compound to GTP-/GDP-bound HRAS
# Sequence of GTP-/GDP-bound HRAS (P01112 whole entry): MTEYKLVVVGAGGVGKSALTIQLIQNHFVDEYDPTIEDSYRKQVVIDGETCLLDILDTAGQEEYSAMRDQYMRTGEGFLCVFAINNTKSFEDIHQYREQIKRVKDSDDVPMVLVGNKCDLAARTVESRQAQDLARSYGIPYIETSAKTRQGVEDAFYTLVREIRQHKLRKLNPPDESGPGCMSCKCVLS
# [5] = biological target: KRAS (Homo sapiens, UniProt P01116, G12D); experiment: Microscale thermophoresis (MST) binding affinity to KRAS (Table 1); settings: 100 nM labeled KRAS, read-out: kD (dissociation constant)
# Sequence of KRAS (P01116 whole entry G12D): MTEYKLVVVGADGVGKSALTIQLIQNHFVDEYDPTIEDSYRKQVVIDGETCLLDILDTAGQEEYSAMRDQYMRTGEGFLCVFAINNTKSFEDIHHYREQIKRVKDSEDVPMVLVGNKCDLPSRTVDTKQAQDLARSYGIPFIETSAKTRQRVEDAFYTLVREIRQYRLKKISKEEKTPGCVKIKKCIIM
# Experimental: Measurement of compound binding affinity to KKRAS using microscale thermophoresis (MST). MST is based on the movement of molecules in response to temperature gradient. […] KRAS was buffer-exchanged in the labeling buffer (40 mM HEPES, pH 7.5, 5 mM MgCl2, and 500 mM NaCl) using a spin column (provided in the kit) The concentration of the eluted protein was adjusted (10 to 20 μM) and 2-3 fold concentration of the dye (in labeling buffer) was added (200 μL final volume), The solution was incubated for 30 minutes at room temperature in the dark. Labeled KRAS was purified using the column provided in the kit or MST measurements, 16 point serial dilutions of ligands were made in MST Assay Buffer (40 mM HEPES, pH 7.5, 5 mM MgCl2, 100 mM NaCl+0.05% Tween-20+2-4% DMSO) and added to 100 nM KRAS. The solutions were loaded in capillaries and measurements were done using 20% LED power and 40% MST power. The data were fit in Igor Pro using Hill equation or the function in the instrument software.
# Microscale thermophoresis (MST) assays were used to measure the affinity of lead compound analogs for KRAS. In a typical experiment, 100 nM KRAS labeled with a dye amine-reactive red NT-647 from NanoTemper) was mixed with different concentrations of ligand and incubated in a binding buffer (40 mM HEPES, pH 7.5, 5 mM MgCl2, 150 mM NaCl, 0.05% polysorbate 20, and 2% DMSO) at room temperature for 10 min before being loaded into a capillary. Thermophoresis is carried out and dissociation constant calculated by monitoring changes in fluorescence intensity. A monolith NT.115 Reader from NanoTemper can be used for MST experiments, with 40% MST and 20% LED power.
# Dissociation constants (IQ)) calculated from the thermophoresis results of selected compounds according to the present disclosure are presented in Table 1 below.
# Note: For FIGS. 1A-H 1 (as well as one of the curves in FIGS. 2A-I), dissociation constant (Kd) was determined using either Microscale Thermophoresis (MST) or Intrinsic Fluorescence (IF) assay. MST assay uses fluorescence to monitor movement of molecules in response to temperature gradient created by infrared laser.
# [6] = biological target: GTP-/GDP-bound NRAS (Homo sapiens, UniProt P01111); experiment: Binding of lead compound to GTP-/GDP-bound NRAS
# Sequence of GTP-/GDP-bound NRAS (P01111 whole entry): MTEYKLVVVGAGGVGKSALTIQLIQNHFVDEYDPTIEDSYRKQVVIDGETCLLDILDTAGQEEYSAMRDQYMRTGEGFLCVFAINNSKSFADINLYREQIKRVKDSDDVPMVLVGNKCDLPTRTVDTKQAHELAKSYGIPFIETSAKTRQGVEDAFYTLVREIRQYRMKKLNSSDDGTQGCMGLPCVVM
# [7] = biological target: KRAS effector binding (Homo sapiens, UniProt P01116); experiment: Effector (Raf) binding to KRAS; format: biochemical
# Sequence of KRAS effector binding (P01116 1-188 isoform P01116-2): as the sequence (P01116 1-188 isoform P01116-2) above
# [8] = biological target: GDP-KRAS (Homo sapiens, UniProt P01116); experiment: Binding of lead compound to GDP-KRAS (inactive KRAS); settings: GDP-bound
# Sequence of GDP-KRAS (P01116 1-188 isoform P01116-2): as above
compound,measurement,setting,value
Cc1nn2c(N3CCN(CCO)CC3)cc(-c3ccccc3)nc2c1-c1ccccc1 [Compound C1],Effect on KRAS-mediated MAPK signaling / signal transduction through KRAS,[1],inhibits; also recorded: reduce
same,Affinity for GTP-KRAS,[2],sub micromolar affinity; also recorded: high affinity
same,Effect on proliferation of cancer cells,[3],inhibit
same,Affinity for GTP-/GDP-bound HRAS,[4],much weaker affinity; also recorded: does not bind
same,Kd,[5],870 ± 180 nM
same,Affinity for GTP-/GDP-bound NRAS,[6],much weaker affinity; also recorded: does not bind
same,Effect on effector binding,[7],significantly reduces; also recorded: disrupt
same,Affinity for GDP-KRAS (inactive KRAS),[8],much weaker affinity; also recorded: does not bind
